# Read-outs that look alike come from different tables or passages of the source.
# What was measured:
# [1] = Kokai Sho 60-132928, Table 2; cited from earlier work
# [2] = tested on: mouse death due to shock induced by PAF; assay: Activity to mouse death due to shock induced by PAF; assay type: in vivo; conditions: male ICR mouse; oral 1 hour prior to i.v. 100 μg/kg PAF; survival at 24 hours
# Experimental: Test was effected according to Young et al. method, Prostaglandins, Vol. 30, p.545, 1985. Lethal test was effected by treating starved male ICR mouse weighing from 25 g to 30 g with PAF without anesthesia. Test Compound was orally administered 1 hour prior to tail intravenous administration of 100 μg/kg of PAF. Survival rate of the test animal was examined 24 hours after intravenous administration of PAF.
# [3] = tested on: contraction of the respiratory tract due to PAF; assay: Activity to contraction of the respiratory tract of guinea pig due to PAF; assay type: in vivo, guinea pig (Hartley); conditions: Cavia porcellus, read-out: Activity to Contraction of the Respiratory Tract of Guinea Pig due to PAF ED50
# Experimental: Hartley male guinea pigs weighing from 350 g to 500 g were anesthetized by intraperitoneal administration of 50 mg/kg of sodium pentobarbital. Contraction of the respiratory tract was measured by inserting a cannula into trachea and measuring under artificial ventilation according to Conzet et al, Arch. […] 71. Test compound was orally administered 1 hour prior to intravenous administration of 0.3 μg/kg of PAF.
# [4] = tested on: Rabbit platelet aggregation induced by PAF; assay: Rabbit platelet aggregation inhibitory activity (PAF-induced); assay type: cell-based, rabbit (New Zealand white); conditions: Oryctolagus cuniculus, read-out: Rabbit Platelet Aggregation Inhibitory activity IC50
# Experimental: To 0.9 volume of blood collected from jugular vein of a New Zealand white male rabbit weighing from 2.5 to 3.5 kg was added 0.1 volume of 3.8% aqueous sodium citrate, and the mixture was centrifuged at 110 xg for 15 minutes to give PRP ([…]). Assay of platelet aggregation induced by PAF was effected using 4 channels aggregometer (Manufacturer: Nicoh Bioscience Co.) according to Bohn et al, Turbidimetry [J. Physiology, Vol. 168, p.178, 1963]. […] The final concentration of PAF in the reaction mixture was adjusted to 10^-10 M.
# Acute toxicity = conditions: in vivo; male and female SD (CD) rat; oral, 0.5% aqueous CMC-Na suspension; observed 14 days
# [5] = tested on: thromboxane synthetase enzyme; conditions: Kokai Sho 63-316778, Table 1; cited from earlier work
# [6] = Hartley male guinea pig, oral 1 hour prior to i.v. 0.3 μg/kg PAF
# [7] = rabbit PRP, PAF final concentration 10^-10 M
SMILES,ED50 [2],"IC50 [4, 7]",also measured
CN1C(=O)c2ccc(Oc3ccc(C(F)(F)F)cc3Cl)cc2C1=O,–,–,herbicidal activity [1]: shows herbicidal activity
"Cc1nnc2n1-c1sc(CCC(=O)N3CCOCC3)cc1C(c1ccccc1Cl)=NC2 [WEB2086, reference compound]",1 mg/kg,–,"ED50 ([3]; po, 1 h): 0.15 mg/kg; IC50 [4]: 0.04 µM"
"O=c1c2cc(Oc3ccc(Cl)cc3)ccc2nnn1Cc1cccnc1 [compound 2, 6-(4-chlorophenoxy)-3-(3-pyridylmethyl)-1,2,3-benzotriazin-4 (3H)-one]",2.1 mg/kg,0.026 µM,"LD50 at 336 h (Acute toxicity): > 2000 mg/kg; ED50 [3, 6]: 0.15 mg/kg"
"O=C1c2ccc(Oc3ccc(Cl)cc3)cc2C(=O)N1Cc1cccnc1 [compound 25, 5-(4-chlorophenoxy)-2-(3-pyridylmethyl)-1H-isoindole-1,3 (2H)-dione]",1.3 mg/kg,0.01 µM,"LD50 at 336 h (Acute toxicity): > 2000 mg/kg; ED50 [3, 6]: 0.14 mg/kg"
"O=C(c1ccc(Cl)cc1)c1ccc2c(c1)C(=O)N(Cc1cccnc1)C2=O [compound 45, 5-(4-chlorobenzoyl)-2-(3-pyridylmethyl)-1H-isoindole-1,3 (2H)-dione]",0.6 mg/kg,0.019 µM,–
"O=C1c2ccc(-c3cccc4ccccc34)cc2C(=O)N1Cc1cccnc1 [compound 50, 5-(1-naphthyl)-2-(3-pyridylmethyl)-1H-isoindole-1,3 (2H)-dione]",0.32 mg/kg,0.024 µM,–
"O=C1c2ccc(N(c3ccc(Cl)cc3)c3ccc(Cl)cc3)cc2C(=O)N1Cc1cccnc1 [compound 60, 5-[N,N-bis (4-chlorophenyl)amino]-2-(3-pyridylmethyl)-1H-isoindole-1,3(2H)-dione]",0.019 mg/kg,0.0026 µM,"LD50 at 336 h (Acute toxicity): > 2000 mg/kg; ED50 [3, 6]: 0.019 mg/kg"
"N#Cc1ccc(N(c2ccc(C#N)cc2)c2ccc3c(c2)C(=O)N(Cc2cccnc2)C3=O)cc1 [compound 63, 5-[N,N-bis (4-cyanophenyl)amino]-2-(3-pyridylmethyl)-1H-isoindole-1,3 (2H)-dione]",0.007 mg/kg,0.0017 µM,"LD50 at 336 h (Acute toxicity): > 2000 mg/kg; ED50 [3, 6]: 0.006 mg/kg"
"O=C1c2ccc(C(c3ccc(Cl)cc3)c3ccc(Cl)cc3)cc2C(=O)N1Cc1cccnc1 [compound 68, 5-[bis (4-chlorophenyl)methyl]-2-(3-pyridylmethyl)-1H-isoindole-1,3 (2H)-dione]",–,0.0018 µM,–
"O=C1c2cccc(Oc3ccc(Cl)cc3)c2C(=O)N1Cc1cccnc1 [compound 72, 4-(4-chlorophenoxy)-2-(3-pyridylmethyl)-1H-isoindole-1,3 (2H)-dione]",0.4 mg/kg,0.032 µM,–
"O=C1c2cc(Oc3ccc(Cl)cc3)ccc2CCN1Cc1cccnc1 [compound 84, 7-(4-chlorophenoxy)-3,4-dihydro-2-(3-pyridylmethyl)-1 (2H)-isoquinolinone]",–,0.01 µM,–
"O=C1c2cc(Oc3ccc(F)cc3)ccc2CN1Cc1cccnc1 [compound 125, 2,3-dihydro-6-(4-fluorophenoxy)-2-(3-pyridylmethyl)-1H-isoindole-1-one]",–,0.036 µM,–
"O=c1c2cc(Oc3ccc(Cl)cc3)ccc2ccn1Cc1cccnc1 [compound 128, 7-(4-chlorophenoxy)-2-(3-pyridylmethyl)-1 (2H)-isoquinolinone]",–,0.018 µM,–
"O=c1c2cc(Oc3ccc(Cl)cc3)ccc2ccn1-c1cccnc1 [compound 130, 7-(4-chlorophenoxy)-2-(3-pyridyl)-1 (2H)-isoquinolinone]",0.018 mg/kg,–,–
"O=c1c2cc(Oc3ccc(Cl)cc3)ccc2ncn1Cc1cccnc1 [compound 131, 6-(4-chlorophenoxy)-3-(3-pyridylmethyl)-4 (3H)-quinazolinone]",–,0.031 µM,–
O=c1c2cc(Cl)ccc2nnn1CCCn1ccnc1 [formula (A)],–,–,thromboxane synthetase enzyme inhibition [5]: inhibits thromboxane synthetase enzyme
